Experimental data published in US4973597A, “Anticonvulsant agents” (Eli Lilly and Company, priority 1989, dated 1990).

Key:
[1] = test system: tonic extensor seizures elicited by maximal electroshock; assay: electroshock induced convulsion inhibition assay (E.S.); assay type: in vivo, Cox standard strain albino male mice; settings: mice; for ED50: Mus musculus, oral dose (gavage), 0.2 second, 50 milliampere corneal electroshock, inhibition of extensor tonic convulsions in half of the animals, at time of optimal response; for Time after dosing providing an approximately optimal response: oral gavage, time between dosing and administration of the electroshock
Protocol: In the electroshock induced convulsion inhibition assay (E.S.), the compound to be tested was suspended in acacia and administered by gavage to each of ten Cox standard strain albino male mice (18-24 g) at the dose level being investigated. Thirty to 180 minutes after compound administration, the mice were subjected to a 0.2 second, 50 milliampere electroshock through corneal electrodes. The animals were examined and evaluated immediately after the electroshock for the occurrence of clonic, flexor tonic, or extensor tonic convulsions, or death and the ED50 was determined for each compound as the dose which inhibited the occurrence of extensor tonic convulsions in one half of the animals immediately after the electroshock. For comparison, 18 milliamperes was usually sufficient to produce extensor tonic convulsions in about half of the control animals; at 50 milliamperes, almost all control animals (receiving vehicle only) died. The test results summarized in Table I are reported as the ED50 values calculated by computer interpolation of fixed doses at the time interval found to provide an optimal response after dosing. For comparison purposes, N-(2,6-dimethylphenyl)-3-pyridinecarboxamide, taught as an intermediate in Example 4 of U.S. Pat. No. 4,361,572, was also evaluated--this compound is referred to in Table I below as Compound A.

[2] = test system: seizures; settings: man; cited from earlier work

Row | SMILES | ED50 [1] | Time after dosing providing an approximately optimal response [1] | plasma level that controls seizures [2]
1 | Cc1cccc(C)c1NC(=O)c1cccnc1 [Compound A, N-(2,6-dimethylphenyl)-3-pyridinecarboxamide, reference compound] | 24.5 mg/kg | 30 min | 
2 | Cc1cccc(C)c1NC(=O)c1ccc(Cl)nc1 [Example 1, 6-Chloro-N-(2,6-dimethylphenyl)-3-pyridinecarboxamide] | 31.7 mg/kg | 30 min | 
3 | Cc1ccc(C(=O)Nc2c(C)cccc2C)cn1 [Example 2, N-(2,6-Dimethylphenyl)-6-methyl-3-pyridinecarboxamide] | 6.7 mg/kg | 60 min | 
4 | Cc1ccc(C(=O)Nc2c(C)cccc2Cl)cn1 [Example 3, N-(2-Chloro-6-methylphenyl)-6-methyl-3-pyridinecarboxamide] | 20.2 mg/kg | 60 min | 
5 | CNc1ccc(C(=O)Nc2c(C)cccc2C)cn1 [Example 4, 6-(Methylamino)-N-(2,6-dimethylphenyl)-3-pyridinecarboxamide] | 8.7 mg/kg | 60 min | 
6 | O=C1NC(=O)C(c2ccccc2)(c2ccccc2)N1 [phenytoin] |  |  | ≥ 10 µg/mL
